According to patent US10028913B2, “Liposomal pharmaceutical preparation and method for manufacturing the same” (priority 2006, dated 2018):
Where “and” joins values, the source holds several entries; their conditions need not be identical. Identical values can stand only once. Like-named read-outs stand apart in the source and are kept apart here.

Key:
S180 solid tumor = assay: Treatment effects on S-180 sarcoma solid tumor; assay type: in vivo, KM mice; conditions: 21st day after inoculation
Protocol: (§1) Ascitic tumor-bearing mice which were inoculated with S180 tumor cells 7 days ago were executed by decollation, and milky viscous ascitic fluid was extracted and diluted with RPMI 1640 medium. After dilution, the tumor cell number was adjusted to 2.5×10^6 cells/ml. […] After inoculation, the cells in the residual tumor cell suspension were counted under light microscope, and living tumor cells were greater than 95%. The number of inoculated mice was 80.
The mice were administered by intravenous injection.
The mice were bred normally after administration. Tumor diameters were measured by vernier caliper 3 times per week, and body weights were measured at the same time. Tumor volume (TV) was calculated with the following formula: V=½×a×b2, in which a and b represent length and width, respectively. The tumor volumes were calculated by using the measurement results. Mice were executed by decollation on the 21st day after inoculation, tumors were taken out and weighed. […] The experimental result was tested by t-test.

[1] = Pharmacokinetics of PLM60 and FM in Kunming mice (plasma level of mitoxantrone); assay type: in vivo; conditions: 2 mg/kg, tail vein
Protocol: This example was conducted in male Kunming mice with a body weight of about 20 g. Different dose levels of mitoxantrone were injected through tail vein in mice. […] Plasma samples were taken at different time points. The methods for processing and detecting plasma samples were described in the document: Methods in enzymology, Vol: 391, p176-185.

[2] = Tissue distribution in S-180 tumor-bearing mice; assay type: in vivo; conditions: male, Kunming, mouse, intravenous, 4 mg/kg i.v.; for concentration at 1 h: t 1 h; for concentration at 4 h: t 4 h; for concentration at 8 h: t 8 h; for concentration at 24 h: t 24 h
Protocol: There were obvious differences in tissue distribution between PLM60 and FM in tumor-bearing mice. Male Kunming mice having a body weight about 20 g were used in the present example. […] Drugs were injected through vein in mice when tumor grew to 0.4-0.7 g. After the administration of drugs, mice were executed at various time points and their tissues were taken out to determine the concentration of mitoxantrone. The tissues included hearts, livers, spleens, lungs, kidneys, intestines, bone marrow and tumors.

Kunming mice = assay: Acute toxicity comparison of PLM60 and FM to Kunming mice; assay type: in vivo
Text: Mice of groups 1-5 were administrated with different dose levels of FM, while mice of groups 6-10 were administrated with an equivalent dose level of liposomal drug. […] The dead animals were dissected and autopsied.

[3] = two dissociable groups at physiological pH; cited from earlier work
C57 mice = assay: Toxicity comparison of liposome formulations with different sizes; assay type: in vivo
Protocol: The dose was 9 mg/kg. […] In mice of FM group, the body weight decreased over 30% and about 20% mice died.

L1210 ascitic tumor = assay: Treatment effects of liposomal mitoxantrone with different size on L1210 ascitic tumor; assay type: in vivo, BDF1 mice; conditions: 4 mg/kg, 60 days observation
Text: as §1, with “Ascitic tumor BDF1” for “Ascitic tumor-bearing”, “with L1210 ascitic” for “with S180”, “extracted under aseptic condition” for “extracted”, “diluted by” for “diluted with”, “95%.” for “95%. The number of inoculated mice was 80.”
After administration, the mice were bred normally. Their body weights were measured 3 times per week, the death time of each mouse was observed and recorded, and survival time was calculated. Mean survival time (MST) and median survival time were employed to evaluate the survival time of each group. Experimental observation was kept for 60 days after the inoculation.
The experimental scheme and data process mode were the same as Example 19. […] The administration dosage for mice in each group was 4 mg/kg.

[4] = heart, read-out: concentration of mitoxantrone in Heart
[5] = intestine, read-out: concentration of mitoxantrone in Intestine
[6] = kidney, read-out: concentration of mitoxantrone in Kidney
[7] = liver, read-out: concentration of mitoxantrone in Liver
[8] = lung, read-out: concentration of mitoxantrone in Lung
[9] = spleen, read-out: concentration of mitoxantrone in Spleen
[10] = tumor, read-out: concentration of mitoxantrone in Tumor

O=C1c2c(O)ccc(O)c2C(=O)c2c(NCCNCCO)ccc(NCCNCCO)c21 [FM, mitoxantrone]
Weight of tumor (S180 solid tumor; 4 mg/kg i.v.): 2828.5 ± 1067.8 mg
Ratio of tumor-inhibiting (S180 solid tumor; 6 mg/kg i.v.): 18.50%
Weight of tumor (S180 solid tumor; 6 mg/kg i.v.): 2293.3 ± 1720.0 mg
AUMC 0-48 [1]: 0.103
AUMC 0-∞ [1]: 0.135
AUC(0-inf) ([1]; male, Kunming, mouse, iv): 199 ng·h/mL
Cmax ([1]; male, Kunming, mouse, iv): 699 ng/mL
Tmax ([1]; male, Kunming, mouse, iv): 4.98 min
AUC(0-t) ([1]; male, Kunming, mouse, iv, read-out: AUC 0-48): 198 ng·h/mL
MRT last ([1]; male, Kunming, mouse, iv, read-out: MRT 0-48): 31 min
MRT inf ([1]; male, Kunming, mouse, iv, read-out: MRT 0-∞): 40.5 min
concentration at 1 h ([2]; bone marrow, read-out: concentration of mitoxantrone in Bone marrow): 127 ng/g
concentration at 1 h [2, 4]: 5380 ng/g
concentration at 4 h [2, 4]: 3520 ng/g
concentration at 8 h [2, 4]: 3200 ng/g
concentration at 24 h [2, 4]: 2940 ng/g
concentration at 1 h [2, 5]: 1530 ng/g
concentration at 4 h [2, 5]: 2140 ng/g
concentration at 8 h [2, 5]: 2550 ng/g
concentration at 24 h [2, 5]: 3940 ng/g
concentration at 1 h [2, 6]: 18200 ng/g
concentration at 4 h [2, 6]: 17200 ng/g
concentration at 8 h [2, 6]: 13400 ng/g
concentration at 24 h [2, 6]: 7460 ng/g
concentration at 1 h [2, 7]: 4770 ng/g
concentration at 4 h [2, 7]: 3560 ng/g
concentration at 8 h [2, 7]: 2660 ng/g
concentration at 24 h [2, 7]: 1940 ng/g
concentration at 1 h [2, 8]: 10200 ng/g
concentration at 4 h [2, 8]: 8020 ng/g
concentration at 8 h [2, 8]: 7020 ng/g
concentration at 24 h [2, 8]: 8080 ng/g
concentration at 1 h [2, 9]: 4040 ng/g
concentration at 4 h [2, 9]: 4460 ng/g
concentration at 8 h [2, 9]: 3770 ng/g
concentration at 24 h [2, 9]: 7750 ng/g
concentration at 1 h [2, 10]: 61.4 ng/g
concentration at 4 h [2, 10]: 13.3 ng/g
Survival time of mice (male / female), individual animals (Kunming mice; dose 12 mg/kg): 18 day (4×) and 13 day (3×)
Survival time of mice (male / female), individual animals (Kunming mice; dose 20 mg/kg): 7 day (4×) and 8 day (3×)
pKa [3]: 8.15
mice died (C57 mice; male C57 mice, FM group): about 20%
body weight decrease (C57 mice; mouse, in vivo): over 30%
Mean survival time (L1210 ascitic tumor): 38.67 ± 3.54
Median survival time (L1210 ascitic tumor): 36.00 ± 6.06
Survival rate (L1210 ascitic tumor): 33.33%
